# Assay results as given in DBAASP.
# Assays:
# Experiment in all cases: ≥ marks a high value that may be exact or a test limit, other limits are often not marked, values filed in µg/mL are converted to µM
# [1] = system: Escherichia coli NCTC 10418
# [2] = system: Staphylococcus aureus
# [3] = system: Micrococcus luteus
# [4] = system: Pasteurella multocida
# [5] = system: Streptococcus uberis
# [6] = system: Bacillus cereus
# [7] = system: Escherichia coli
# [8] = system: Listeria innocua
# [9] = system: Leuconostoc lactis
# [10] = system: Staphylococcus epidermidis
# [11] = system: Staphylococcus aureus KCTC 1621
# [12] = system: Pseudomonas aeruginosa KCTC 1637
# [13] = system: Escherichia coli KCTC 1682
# [14] = system: Staphylococcus epidermidis KCTC 1917
# [15] = system: Salmonella typhimurium KCTC 1926
# [16] = system: Bacillus subtilis KCTC 3068
# [17] = system: Micrococcus luteus ATCC 9341
# [18] = system: Escherichia coli K-12
# [19] = system: Staphylococcus aureus USA 300
SMILES,MIC [2],MIC [3],MIC [4],MIC [5],MIC [6],MIC [7],MIC [8],MIC [9],MIC [10],further results
CC[C@H](C)[C@H](NC(=O)[C@H](CCCCN)NC(=O)[C@H](C)NC(=O)[C@H](C)N)C(=O)N[C@H](C(=O)N[C@@H](CC(C)C)C(=O)N[C@@H](CC(N)=O)C(=O)N1CCC[C@H]1C(=O)N[C@@H](CCCCN)C(=O)N[C@@H](Cc1ccccc1)C(=O)N[C@@H](CCCN=C(N)N)C(=O)N[C@H]1CSSC[C@@H](C(=O)O)NC(=O)[C@H](Cc2ccccc2)NC(=O)[C@H](C)NC(=O)[C@H](C)NC(=O)[C@H](Cc2ccccc2)NC1=O)[C@@H](C)CC [AAKIILNPKFRCFAAFC],–,–,–,–,–,–,–,–,–,MIC [1]: ≥ 160 µM
CC[C@H](C)[C@H](NC(=O)[C@H](CC(=O)O)NC(=O)[C@H](Cc1ccccc1)NC(=O)[C@H](CC(C)C)NC(=O)CN)C(=O)N[C@H](C(=O)N[C@@H](CCCCN)C(=O)N[C@@H](CCCCN)C(=O)N[C@H](C(=O)N[C@@H](C)C(=O)N[C@@H](CO)C(=O)N[C@H](C(=O)N[C@H](C(=O)NCC(=O)NCC(=O)N[C@@H](CC(C)C)C(N)=O)[C@@H](C)CC)C(C)C)C(C)C)[C@@H](C)CC [GLFDIIKKVASVIGGL],15.3 µM,7.36 µM,≥ 61.4 µM,7.36 µM,15.3 µM,> 61.4 µM,15.3 µM,3.68 µM,15.3 µM,–
CC[C@H](C)[C@H](NC(=O)[C@H](CCCCN)NC(=O)[C@H](CO)NC(=O)[C@H](C)NC(=O)[C@@H](NC(=O)[C@H](CCCCN)NC(=O)[C@H](CCCCN)NC(=O)[C@@H](NC(=O)[C@@H](NC(=O)[C@H](CC(=O)O)NC(=O)[C@H](Cc1ccccc1)NC(=O)[C@H](CC(C)C)NC(=O)CN)C(C)C)[C@@H](C)CC)C(C)C)C(=O)NCC(=O)NCC(=O)N[C@@H](CC(C)C)C(N)=O [GLFDVIKKVASKIGGL],> 60.8 µM,≥ 60.8 µM,≥ 60.8 µM,≥ 60.8 µM,≥ 60.8 µM,60.8 µM,30.4 µM,7.29 µM,≥ 60.8 µM,–
CC[C@H](C)[C@H](NC(=O)[C@@H](NC(=O)[C@H](CO)NC(=O)[C@H](C)NC(=O)[C@@H](NC(=O)[C@H](CCCCN)NC(=O)[C@H](CCCCN)NC(=O)[C@@H](NC(=O)[C@@H](NC(=O)[C@H](CC(=O)O)NC(=O)[C@H](Cc1ccccc1)NC(=O)[C@H](CC(C)C)NC(=O)CN)C(C)C)[C@@H](C)CC)C(C)C)C(C)C)C(=O)NCC(=O)NCC(=O)N[C@@H](C)C(N)=O [GLFDVIKKVASVIGGA],> 63.5 µM,≥ 63.5 µM,≥ 63.5 µM,≥ 63.5 µM,≥ 63.5 µM,> 63.5 µM,≥ 63.5 µM,15.9 µM,≥ 63.5 µM,–
CC[C@H](C)[C@H](NC(=O)[C@@H](NC(=O)[C@H](CO)NC(=O)[C@H](C)NC(=O)[C@@H](NC(=O)[C@H](CCCCN)NC(=O)[C@H](CCCCN)NC(=O)[C@@H](NC(=O)[C@@H](NC(=O)[C@H](CC(=O)O)NC(=O)[C@H](Cc1ccccc1)NC(=O)[C@H](CC(C)C)NC(=O)CN)C(C)C)[C@@H](C)CC)C(C)C)C(C)C)C(=O)NCC(=O)N[C@@H](CC(C)C)C(=O)N[C@@H](C)C(=O)N[C@@H](CO)C(=O)N1CCC[C@H]1C(=O)O [GLFDVIKKVASVIGLASP],> 55.1 µM,≥ 55.1 µM,≥ 55.1 µM,≥ 55.1 µM,≥ 55.1 µM,> 55.1 µM,≥ 55.1 µM,27.6 µM,≥ 55.1 µM,–
CC[C@H](C)[C@H](NC(=O)[C@H](CO)NC(=O)CNC(=O)[C@@H](NC(=O)[C@H](CC(C)C)NC(=O)CN)[C@@H](C)CC)C(=O)NCC(=O)N[C@@H](CCCCN)C(=O)N[C@@H](C)C(=O)N[C@@H](CC(C)C)C(=O)NCC(=O)NCC(=O)N[C@@H](CC(C)C)C(=O)N[C@@H](CC(C)C)C(=O)N[C@H](C(=O)N[C@@H](CC(=O)O)C(=O)N[C@H](C(=O)N[C@@H](CC(C)C)C(=O)N[C@@H](CCCCN)C(=O)N1CCC[C@H]1C(=O)N[C@@H](CCCCN)C(=O)N[C@@H](CC(C)C)C(=O)N[C@@H](CCC(N)=O)C(=O)N[C@@H](C)C(=O)N[C@@H](C)C(=O)N[C@@H](CO)C(=O)O)C(C)C)C(C)C [GLIGSIGKALGGLLVDVLKPKLQAAS],> 39.7 µM,≥ 39.7 µM,≥ 39.7 µM,≥ 39.7 µM,≥ 39.7 µM,> 39.7 µM,≥ 39.7 µM,≥ 39.7 µM,≥ 39.7 µM,–
CC[C@H](C)[C@H](N)C(=O)NCC(=O)N[C@@H](CCCCN)C(=O)N[C@@H](CCCCN)C(=O)N[C@@H](Cc1ccccc1)C(=O)N[C@@H](CCCCN)C(=O)N[C@@H](CCCN=C(N)N)C(=O)N[C@H](C(=O)N[C@H](C(=O)N[C@@H](CCC(N)=O)C(=O)N[C@@H](CCCN=C(N)N)C(=O)N[C@H](C(=O)N[C@@H](CCCCN)C(=O)N[C@@H](CCCCN)C(=O)N[C@@H](Cc1ccccc1)C(=O)N[C@@H](CC(C)C)C(=O)N[C@@H](CCCN=C(N)N)C(=O)N[C@@H](CCCCN)C(=O)N[C@@H](CC(C)C)C(=O)O)[C@@H](C)CC)C(C)C)[C@@H](C)CC [IGKKFKRIVQRIKKFLRKL],–,–,–,–,–,–,–,–,–,MIC [11]: 4 µM; MIC [12]: 8 µM; MIC [13]: 8 µM; MIC [14]: 2 µM; MIC [15]: 4 µM; MIC [16]: 2 µM
CC[C@H](C)[C@H](N)C(=O)N[C@@H](CC(C)C)C(=O)N1CCC[C@H]1C(=O)N[C@@H](Cc1c[nH]c2ccccc12)C(=O)N[C@@H](CCCCN)C(=O)N[C@@H](Cc1c[nH]c2ccccc12)C(=O)N1CCC[C@H]1C(=O)N[C@@H](Cc1c[nH]c2ccccc12)C(=O)N[C@@H](Cc1c[nH]c2ccccc12)C(N)=O [ILPWKWPWW],–,–,–,–,–,–,–,–,–,MIC [17]: 1.6 µM
CC[C@H](C)[C@H](NC(=O)[C@@H](N)CCCCN)C(=O)N[C@@H](CCCCN)C(=O)N[C@@H](CC(C)C)C(=O)N[C@@H](Cc1ccccc1)C(=O)N[C@@H](CCCCN)C(=O)N[C@@H](CCCCN)C(=O)N[C@@H](Cc1c[nH]c2ccccc12)C(=O)N1CCC[C@H]1C(=O)N[C@@H](CCCCN)C(=O)N[C@@H](Cc1ccccc1)C(=O)N[C@@H](CC(C)C)C(=O)N[C@@H](Cc1cnc[nH]1)C(=O)N[C@@H](CC(C)C)C(=O)N[C@@H](C)C(=O)N[C@@H](CCCCN)C(=O)N[C@@H](CCCCN)C(=O)N[C@@H](Cc1ccccc1)C(N)=O [KIKLFKKWPKFLHLAKKF],–,–,–,–,–,–,–,–,–,MIC [11]: 2 µM; MIC [12]: 2 µM; MIC [13]: 2 µM; MIC [14]: 1 µM; MIC [15]: 2 µM; MIC [16]: 1 µM
CC[C@H](C)[C@H](NC(=O)[C@H](CCCCN)NC(=O)[C@H](CCC(N)=O)NC(=O)[C@@H](NC(=O)[C@@H](NC(=O)[C@H](CCCCN)NC(=O)[C@@H](N)CCCCN)[C@@H](C)CC)C(C)C)C(=O)N[C@@H](CCCCN)C(=O)N[C@@H](CC(=O)O)C(=O)N[C@@H](Cc1ccccc1)C(=O)N[C@@H](CC(C)C)C(=O)N[C@@H](CCCCN)C(N)=O [KKIVQKIKDFLK],–,–,–,–,–,–,–,–,–,MIC [18]: ≥ 106 µM
CC[C@H](C)[C@H](NC(=O)[C@H](CC(C)C)NC(=O)CNC(=O)[C@H](CO)NC(=O)[C@@H](NC(=O)[C@H](CC(C)C)NC(=O)[C@@H](N)CC(N)=O)C(C)C)C(=O)N[C@@H](CCC(=O)O)C(=O)N[C@@H](C)C(=O)N[C@@H](CCCNC(=N)N)C(=O)N[C@@H](CCCCN)C(=O)N[C@@H](Cc1ccc(O)cc1)C(=O)N[C@@H](CC(C)C)C(=O)N[C@@H](CCC(=O)O)C(=O)N[C@@H](CCC(N)=O)C(=O)N[C@@H](CC(C)C)C(=O)N[C@@H](Cc1cnc[nH]1)C(=O)N[C@@H](CCCNC(=N)N)C(=O)N[C@@H](CCCCN)C(=O)N[C@@H](CC(C)C)C(=O)N[C@@H](CCCCN)C(=O)N[C@@H](CC(N)=O)C(=O)N[C@@H](CCCNC(=N)N)C(=O)N[C@@H](CCCCN)C(=O)N[C@H](C(=O)O)C(C)C [NLVSGLIEARKYLEQLHRKLKNRKV],–,–,–,–,–,–,–,–,–,MIC [19]: ≥ 92 µM; MIC [18]: ≥ 92 µM
CC[C@H](C)[C@H](NC(=O)[C@H](CC(C)C)NC(=O)[C@@H]1CCCN1C(=O)[C@H](Cc1ccccc1)NC(=O)[C@H](CCCCN)NC(=O)[C@H](Cc1ccccc1)NC(=O)[C@@H]1CCCN1C(=O)[C@H](Cc1ccccc1)NC(=O)[C@H](Cc1ccccc1)NC(=O)[C@@H]1CCCN1C(=O)[C@H](Cc1ccccc1)NC(=O)[C@H](CCCN=C(N)N)NC(=O)[C@@H](N)CCCN=C(N)N)C(N)=O [RRFPFFPFKFPLI],–,–,–,–,–,–,–,–,–,MIC [17]: 0.4 µM
